Reference: patent US20230264191A1, “SYSTEMS AND METHODS FOR FABRICATING PHYSIOLOGICALLY RELEVANT IN VITRO VESSELS” (The Texas A&M University System, priority 2022, published 2023)

System: lymphatic endothelial cells (LEC monoculture / LEC-LMC coculture in lymphangion-chip)
Experiment: Lymphatic endothelial barrier function (permeability) of the lymphangion-chip after exposure to TNF-α
Format: cell-based
Details: LMCs cocultured with LECs (graph 400, FIG. 22)

Tumor Necrosis Factor Alpha (TNF-α)
lymphatic endothelial barrier function: relatively conserved
